Measurements from publication PMC2248166, “Quantitative peptide binding motifs for 19 human and mouse MHC class I molecules derived using positional scanning combinatorial peptide libraries” (Immunome Research, 2008).
Where a SMILES comes first, the peptide text is derived from it.

molecular target: HLA A*3201 (Homo sapiens, UniProt P04439, A270S/D101S/D185E/E176V/E277Q/F133L/G103R/G107R/G231S/H175R/I121M/I218V/I322F/K168Q/L105A/L300P/L318F/M331R/P208A/P217A/Q94H/R106L/R138Q/S129P/T104I/T323A/T345S/V100E/V321M/V358M); assay: biochemical; format: binding

In order of rising IC50:
1. CC[C@H](C)[C@H](NC(=O)[C@@H](N)CO)C(=O)N[C@@H](Cc1ccc(O)cc1)C(=O)NCC(=O)N[C@@H](Cc1ccccc1)C(=O)NCC(=O)N[C@H](C(=O)N[C@H](C(=O)N[C@@H](Cc1ccccc1)C(=O)O)[C@@H](C)O)C(C)C [3102.0314] (H-SIYGFGVTF-OH)  0.11 nM
2. CC[C@H](C)[C@H](NC(=O)[C@@H]1CCCN1C(=O)[C@H](CC(C)C)NC(=O)[C@@H](NC(=O)[C@H](Cc1ccc(O)cc1)NC(=O)[C@H](Cc1ccccc1)NC(=O)[C@H](CCSC)NC(=O)[C@H](CC(C)C)NC(=O)[C@@H](N)Cc1c[nH]cn1)[C@@H](C)O)C(=O)O [3102.0397] (H-HLMFYTLPI-OH)  0.18 nM
3. C[C@@H](O)[C@H](NC(=O)[C@H](CCCNC(=N)N)NC(=O)[C@H](CC(N)=O)NC(=O)[C@H](Cc1ccccc1)NC(=O)[C@@H](NC(=O)[C@@H](N)CCCNC(=N)N)[C@@H](C)O)C(=O)N[C@@H](Cc1c[nH]cn1)C(=O)N[C@@H](Cc1ccc(O)cc1)C(=O)N[C@@H](Cc1c[nH]c2ccccc12)C(=O)O [3102.0309] (H-RTFNRTHYW-OH)  0.24 nM
4. CSCC[C@H](NC(=O)[C@@H](N)C(C)C)C(=O)N[C@@H](Cc1ccc(O)cc1)C(=O)N[C@@H](C)C(=O)N[C@@H](Cc1ccccc1)C(=O)N[C@H](C(=O)N[C@H](C(=O)N1CCC[C@H]1C(=O)N[C@@H](CC(C)C)C(=O)O)[C@@H](C)O)[C@@H](C)O [3102.0516] (H-VMYAFTTPL-OH)  0.29 nM
5. CC[C@H](C)[C@H](NC(=O)[C@H](Cc1ccc(O)cc1)NC(=O)CNC(=O)[C@H](CO)NC(=O)[C@@H](NC(=O)[C@@H](N)CCCCN)[C@@H](C)O)C(=O)N[C@@H](CO)C(=O)N[C@@H](CO)C(=O)N[C@@H](Cc1ccccc1)C(=O)O [3102.0408] (H-KTSGYISSF-OH)  0.5 nM
6. CC[C@H](C)[C@H](NC(=O)[C@@H](NC(=O)[C@@H]1CCCN1C(=O)[C@@H](NC(=O)[C@H](Cc1ccccc1)NC(=O)[C@H](CC(N)=O)NC(=O)[C@H](CCSC)NC(=O)[C@@H](NC(=O)[C@@H](N)CO)C(C)C)[C@@H](C)CC)[C@@H](C)CC)C(=O)O [3102.0404] (H-SVMNFIPII-OH)  0.6 nM
7. CC[C@H](C)[C@H](NC(=O)[C@H](CCCCN)NC(=O)[C@H](Cc1ccccc1)NC(=O)[C@H](CCSC)NC(=O)[C@@H](N)[C@@H](C)O)C(=O)N[C@H](C(=O)N[C@@H](Cc1ccc(O)cc1)C(=O)N[C@@H](CO)C(=O)N[C@@H](CC(C)C)C(=O)O)C(C)C [3102.0291] (H-TMFKIVYSL-OH)  0.92 nM
8. CC[C@H](C)[C@H](NC(=O)[C@@H](NC(=O)[C@H](CCCNC(=N)N)NC(=O)[C@@H]1CCCN1C(=O)[C@H](Cc1ccccc1)NC(=O)[C@H](Cc1ccccc1)NC(=O)[C@H](CCSC)NC(=O)[C@@H](NC(=O)[C@H](C)N)[C@@H](C)CC)[C@@H](C)O)C(=O)O [3102.0423] (H-AIMFFPRTI-OH)  1.1 nM
9. CC[C@H](C)[C@H](N)C(=O)N[C@H](C(=O)N[C@@H](CC(C)C)C(=O)N[C@@H](Cc1c[nH]cn1)C(=O)N[C@@H](CC(C)C)C(=O)N[C@@H](C)C(=O)N[C@@H](CS)C(=O)NCC(=O)N[C@@H](Cc1ccccc1)C(=O)O)[C@@H](C)O [3102.0338] (H-ITLHLACGF-OH)  1.4 nM
10. CC(C)C[C@H](NC(=O)[C@@H](N)Cc1ccc(O)cc1)C(=O)N[C@@H](Cc1ccccc1)C(=O)N[C@@H](CO)C(=O)N[C@@H](CCC(N)=O)C(=O)N[C@@H](CC(N)=O)C(=O)N[C@@H](Cc1ccc(O)cc1)C(=O)N[C@@H](CO)C(=O)N[C@@H](Cc1ccccc1)C(=O)O [3102.0410] (H-YLFSQNYSF-OH)  1.4 nM
11. CC[C@H](C)[C@H](NC(=O)[C@H](CO)NC(=O)[C@@H](N)CCCCN)C(=O)N[C@@H](CC(N)=O)C(=O)N[C@H](C(=O)N[C@@H](CCC(=O)O)C(=O)N[C@@H](Cc1ccc(O)cc1)C(=O)N[C@@H](CCCNC(=N)N)C(=O)N[C@@H](Cc1ccccc1)C(=O)O)C(C)C [3102.0364] (H-KSINVEYRF-OH)  1.5 nM
12. CC[C@H](C)[C@H](NC(=O)[C@H](CO)NC(=O)[C@@H](NC(=O)[C@H](C)NC(=O)[C@@H](NC(=O)[C@H](CC(C)C)NC(=O)[C@H](CC(C)C)NC(=O)[C@@H](NC(=O)[C@@H](N)CCCCN)[C@@H](C)CC)C(C)C)C(C)C)C(=O)O [3102.0330] (H-KILLVAVSI-OH)  1.5 nM
13. CC[C@H](C)[C@H](N)C(=O)N[C@H](C(=O)N[C@@H](Cc1ccc(O)cc1)C(=O)N[C@@H](Cc1c[nH]c2ccccc12)C(=O)N[C@@H](CO)C(=O)N[C@@H](CCCNC(=N)N)C(=O)N[C@@H](Cc1ccccc1)C(=O)N[C@H](C(=O)N[C@H](C(=O)O)[C@@H](C)CC)[C@@H](C)O)[C@@H](C)O [3102.0387] (H-ITYWSRFTI-OH)  2.5 nM
14. CC[C@H](C)[C@H](NC(=O)[C@H](CCC(=O)O)NC(=O)[C@H](Cc1ccccc1)NC(=O)[C@H](CO)NC(=O)[C@@H](N)CCCNC(=N)N)C(=O)N[C@H](C(=O)N[C@@H](CC(N)=O)C(=O)N[C@H](C(=O)N[C@@H](CC(C)C)C(=O)O)C(C)C)[C@@H](C)CC [3102.0322] (H-RSFEIINVL-OH)  2.9 nM
15. CC[C@H](C)[C@H](NC(=O)[C@@H](NC(=O)[C@@H](N)CCCCN)[C@@H](C)O)C(=O)N[C@@H](Cc1ccccc1)C(=O)N[C@@H](CC(C)C)C(=O)N[C@@H](CO)C(=O)N[C@@H](CCC(=O)O)C(=O)N1CCC[C@H]1C(=O)N[C@@H](Cc1ccc(O)cc1)C(=O)O [3102.0457] (H-KTIFLSEPY-OH)  2.9 nM
16. CC[C@H](C)[C@H](NC(=O)[C@H](CO)NC(=O)[C@H](CCSC)NC(=O)[C@H](CC(C)C)NC(=O)[C@@H](N)CCCNC(=N)N)C(=O)N[C@@H](CC(N)=O)C(=O)N[C@@H](CCCNC(=N)N)C(=O)NCC(=O)N[C@@H](Cc1ccccc1)C(=O)O [3102.0465] (H-RLMSINRGF-OH)  3 nM
17. CC[C@H](C)[C@H](NC(=O)[C@H](CC(C)C)NC(=O)[C@@H](N)CCCNC(=N)N)C(=O)N[C@@H](CC(N)=O)C(=O)N[C@@H](CC(N)=O)C(=O)N[C@@H](CCCNC(=N)N)C(=O)N[C@H](C(=O)N[C@@H](CC(C)C)C(=O)N[C@@H](Cc1ccccc1)C(=O)O)C(C)C [3102.0428] (H-RLINNRVLF-OH)  5.7 nM
18. CC[C@H](C)[C@H](NC(=O)[C@H](Cc1ccccc1)NC(=O)[C@@H](NC(=O)[C@@H](NC(=O)[C@@H](N)CO)[C@@H](C)CC)[C@@H](C)CC)C(=O)N[C@@H](CC(N)=O)C(=O)N[C@@H](Cc1ccc(O)cc1)C(=O)N[C@H](C(=O)N[C@@H](CCSC)C(=O)O)[C@@H](C)O [3102.0303] (H-SIIFINYTM-OH)  6.5 nM
19. CC[C@H](C)[C@H](NC(=O)[C@@H](NC(=O)[C@H](CC(C)C)NC(=O)[C@@H](NC(=O)[C@H](CO)NC(=O)[C@H](CO)NC(=O)[C@@H](NC(=O)[C@H](CO)NC(=O)[C@H](C)N)[C@@H](C)CC)C(C)C)[C@@H](C)O)C(=O)O [3102.0373] (H-ASISSVLTI-OH)  13 nM
20. CC[C@H](C)[C@H](NC(=O)[C@H](CCSC)NC(=O)[C@@H](NC(=O)[C@H](CO)NC(=O)[C@H](CO)NC(=O)[C@H](Cc1ccc(O)cc1)NC(=O)[C@H](CO)NC(=O)[C@H](CCSC)NC(=O)[C@@H](N)CCCCN)C(C)C)C(=O)O [3102.0497] (H-KMSYSSVMI-OH)  14 nM
21. CC[C@H](C)[C@H](NC(=O)[C@@H](NC(=O)[C@H](CC(C)C)NC(=O)[C@@H](NC(=O)[C@@H](NC(=O)[C@H](CO)NC(=O)[C@H](CC(C)C)NC(=O)[C@H](CCSC)NC(=O)[C@@H](N)[C@@H](C)O)[C@@H](C)CC)[C@@H](C)CC)C(C)C)C(=O)O [3102.0409] (H-TMLSIILVI-OH)  16 nM
22. CC[C@H](C)[C@H](NC(=O)[C@@H](NC(=O)[C@@H](NC(=O)[C@H](Cc1ccccc1)NC(=O)[C@H](Cc1ccccc1)NC(=O)[C@@H](NC(=O)[C@H](CC(C)C)NC(=O)[C@@H](NC(=O)[C@@H](N)CO)[C@@H](C)O)[C@@H](C)CC)C(C)C)[C@@H](C)CC)C(=O)O [3102.0317] (H-STLIFFVII-OH)  18 nM
23. CC[C@H](C)[C@H](NC(=O)[C@H](CC(N)=O)NC(=O)[C@H](CC(N)=O)NC(=O)[C@@H](NC(=O)[C@@H]1CCCN1C(=O)[C@H](CCC(N)=O)NC(=O)[C@H](CC(N)=O)NC(=O)[C@H](CC(C)C)NC(=O)[C@@H](N)CCCNC(=N)N)C(C)C)C(=O)O [3102.0398] (H-RLNQPVNNI-OH)  25 nM
24. CC[C@H](C)[C@H](NC(=O)[C@@H](NC(=O)[C@@H](NC(=O)[C@H](CC(C)C)NC(=O)[C@H](CC(C)C)NC(=O)[C@H](CC(N)=O)NC(=O)[C@H](Cc1ccc(O)cc1)NC(=O)[C@H](CCSC)NC(=O)[C@@H](N)CC(C)C)[C@@H](C)O)[C@@H](C)CC)C(=O)O [3102.0455] (H-LMYNLLTII-OH)  30 nM
25. CC[C@H](C)[C@H](NC(=O)[C@H](CCSC)NC(=O)[C@H](CC(=O)O)NC(=O)[C@H](CCSC)NC(=O)[C@@H](N)CC(C)C)C(=O)N[C@H](C(=O)N[C@@H](CC(C)C)C(=O)N[C@@H](CO)C(=O)N[C@@H](CC(C)C)C(=O)O)[C@@H](C)O [3102.0448] (H-LMDMITLSL-OH)  30 nM
26. CC[C@H](C)[C@H](NC(=O)[C@H](CC(N)=O)NC(=O)[C@@H](NC(=O)[C@@H](NC(=O)[C@@H](N)CO)[C@@H](C)O)[C@@H](C)CC)C(=O)N[C@@H](CS)C(=O)N[C@@H](CC(C)C)C(=O)N1CCC[C@H]1C(=O)N[C@@H](Cc1ccc(O)cc1)C(=O)O [3102.0390] (H-STINICLPY-OH)  32 nM
27. CC(C)C[C@H](NC(=O)[C@H](CO)NC(=O)[C@H](CC(C)C)NC(=O)[C@@H](NC(=O)[C@H](CC(C)C)NC(=O)[C@H](Cc1c[nH]cn1)NC(=O)[C@H](CC(N)=O)NC(=O)[C@H](CC(C)C)NC(=O)[C@H](C)N)C(C)C)C(=O)O [3102.0469] (H-ALNHLVLSL-OH)  41 nM
28. CC[C@H](C)[C@H](NC(=O)[C@@H](NC(=O)[C@@H](NC(=O)[C@H](CC(=O)O)NC(=O)[C@@H](NC(=O)[C@H](Cc1ccccc1)NC(=O)[C@@H](NC(=O)[C@@H](NC(=O)[C@@H](N)CO)[C@@H](C)CC)C(C)C)C(C)C)C(C)C)[C@@H](C)CC)C(=O)O [3102.0355] (H-SIVFVDVII-OH)  59 nM
